Target: T1, récepteurs 5-HT3 (Rattus norvegicus, UniProt P35563)
T1 construct: induite par l'injection intraveineuse d'agonistes 5-HT3 chez le rat anesthésié à l'uréthane; from tissue; host or cells: whole animal: Sprague-Dawley rat, vagal afferents
T1 sequence (P35563 24-483): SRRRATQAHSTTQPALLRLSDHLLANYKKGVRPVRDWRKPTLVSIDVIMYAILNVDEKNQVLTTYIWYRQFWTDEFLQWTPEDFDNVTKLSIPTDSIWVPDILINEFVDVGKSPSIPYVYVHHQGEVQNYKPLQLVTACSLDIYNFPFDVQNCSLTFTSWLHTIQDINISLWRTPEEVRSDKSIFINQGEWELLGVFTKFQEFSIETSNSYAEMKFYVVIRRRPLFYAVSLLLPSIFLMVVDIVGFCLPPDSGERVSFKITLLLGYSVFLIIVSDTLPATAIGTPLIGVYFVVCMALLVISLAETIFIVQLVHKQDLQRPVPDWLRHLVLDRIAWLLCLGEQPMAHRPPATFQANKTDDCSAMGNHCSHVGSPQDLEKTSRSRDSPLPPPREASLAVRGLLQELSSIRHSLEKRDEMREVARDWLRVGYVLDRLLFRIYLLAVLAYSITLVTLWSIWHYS
Experiment: Bezold-Jarisch bradycardic reflex in the urethane-anaesthetised rat
Format: in vivo
Conditions: for duration of the transient fall of rythme cardiaque: 30 µg i.v.; for prevention of the agonist-induced fall of rythme cardiaque: prior i.v. administration, dose 1 µg/kg
Text: La bradycardie (réflexe de BEZOLD-JARISCH) est induite par l'injection intraveineuse d'agonistes 5-HT3 chez le rat anesthésié à l'uréthane. Cette réponse consiste en une bradycardie brutale mais transitoire induite par la stimulation des récepteurs 5-HT3 sur les afférences vagales. Ce modèle est donc tout à fait approprié pour révéler d'éventuels effet agonistes ou antagonistes de composés qui sont des ligands potentiels des récepteurs 5-HT3.
L'animal (rat mâle, adulte - souche Sprague-Dawley, 250-300 g) est tout d'abord anesthésié à l'uréthane (1,4 g/kg i.p.) puis trachéotomisé pour la mise en place d'une canule trachéale. Un cathéter (0,3 mm) est introduit dans l'aorte abdominale via l'artère fémorale pour l'enregistrement en continu de la pression artérielle et du rythme cardiaque. Les agents pharmacologiques sont injectés dans la veine saphène qui a été canulée à cet effet.

| Structure (SMILES) | duration of the transient fall of rythme cardiaque | prevention of the agonist-induced fall of rythme cardiaque |
| --- | --- | --- |
| Cc1[nH]c2ccc(O)cc2c1CCN [2-méthyl-5-tryptamine, 2-méthyl-5 hydroxytryptamine] | 4-5 secondes | – |
| NCCc1c[nH]c2ccc(O)cc12 [sérotonine] | 4-5 secondes | – |
| Cc1nccn1CC1CCc2c(c3ccccc3n2C)C1=O (stereo not shown) [ondansetron] | – | complétement empêché |
| COc1cc(N)c(Cl)cc1C(=O)NC1CN2CCC1CC2 (stereo not shown) [zacopride] | – | complétement empêché |

Reference: patent publication EP0573360A1, “Pyrrolothienopyrazine compounds as 5-HT3 receptors antagonists” (ADIR ET COMPAGNIE, priority 1992, dated 1993)
